# Test results reported in US20180099931A1 (AbbVie S.à.r.l., priority 2016, published 2018).
# Where two headings read alike, the source gives them in different places.
# Target: T1, F508delCFTR (Homo sapiens, UniProt P13569, DEL508-508)
# T1 construct: expressed in transfected cells; host or cells: CFBE41o- human lung-derived epithelial cells (CFBE4lo-F508delCFTR-HRP), doxycycline-inducible
# Experiment: Cell Surface Expression-Horse Radish Peroxidase (CSE-HRP) Assay;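 as to Maximum % activity (with co-corrector): co-corrector and positive control are both the same reference corrector at 2 µM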;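 as to Maximum % activity (without co-corrector): percent of the 2 µM on-plate positive control corrector response above DMSO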
# Format: cell-based
# Conditions: for Emax: read-out: Maximum % activity (without co-corrector)
# [1] = with co-corrector (2 μM), maximum at any tested concentration, normalized to on-plate positive control
# [2] = test compound without co-corrector, maximum at any tested concentration, normalized to on-plate positive control
# [3] = test compound without co-corrector, read-out: EC50 (without co-corrector)
# [4] = with co-corrector (2 μM of 3-[(2R,4R)-4-({[1-(2,2-difluoro-1,3-benzodioxol-5-yl)cyclopropyl]carbonyl}amino)-7-methoxy-3,4-dihydro-2H-chromen-2-yl]benzoic acid), maximum at any tested concentration, normalized to on-plate positive control
# [5] = with co-corrector (2 μM of 3-[(2R,4R)-4-({[1-(2,2-difluoro-1,3-benzodioxol-5-yl)cyclopropyl]carbonyl}amino)-7-methoxy-3,4-dihydro-2H-chromen-2-yl]benzoic acid), read-out: EC50 (with co-corrector)
# [6] = CSE-HRP, test compound without co-corrector, read-out: EC50 (without co-corrector)
# [7] = CSE-HRP, with co-corrector (2 μM of 3-[(2R,4R)-4-({[1-(2,2-difluoro-1,3-benzodioxol-5-yl)cyclopropyl]carbonyl}amino)-7-methoxy-3,4-dihydro-2H-chromen-2-yl]benzoic acid), read-out: EC50 (with co-corrector)
# [8] = CSE-HRP, with co-corrector (2 μM), maximum at any tested concentration, normalized to on-plate positive control
# [9] = CSE-HRP, without co-corrector, maximum at any tested concentration, normalized to on-plate positive control
# [10] = without co-corrector, maximum at any tested concentration, normalized to on-plate positive control
# T1 sequence (P13569 with tags, fused parts or gaps DEL508-508): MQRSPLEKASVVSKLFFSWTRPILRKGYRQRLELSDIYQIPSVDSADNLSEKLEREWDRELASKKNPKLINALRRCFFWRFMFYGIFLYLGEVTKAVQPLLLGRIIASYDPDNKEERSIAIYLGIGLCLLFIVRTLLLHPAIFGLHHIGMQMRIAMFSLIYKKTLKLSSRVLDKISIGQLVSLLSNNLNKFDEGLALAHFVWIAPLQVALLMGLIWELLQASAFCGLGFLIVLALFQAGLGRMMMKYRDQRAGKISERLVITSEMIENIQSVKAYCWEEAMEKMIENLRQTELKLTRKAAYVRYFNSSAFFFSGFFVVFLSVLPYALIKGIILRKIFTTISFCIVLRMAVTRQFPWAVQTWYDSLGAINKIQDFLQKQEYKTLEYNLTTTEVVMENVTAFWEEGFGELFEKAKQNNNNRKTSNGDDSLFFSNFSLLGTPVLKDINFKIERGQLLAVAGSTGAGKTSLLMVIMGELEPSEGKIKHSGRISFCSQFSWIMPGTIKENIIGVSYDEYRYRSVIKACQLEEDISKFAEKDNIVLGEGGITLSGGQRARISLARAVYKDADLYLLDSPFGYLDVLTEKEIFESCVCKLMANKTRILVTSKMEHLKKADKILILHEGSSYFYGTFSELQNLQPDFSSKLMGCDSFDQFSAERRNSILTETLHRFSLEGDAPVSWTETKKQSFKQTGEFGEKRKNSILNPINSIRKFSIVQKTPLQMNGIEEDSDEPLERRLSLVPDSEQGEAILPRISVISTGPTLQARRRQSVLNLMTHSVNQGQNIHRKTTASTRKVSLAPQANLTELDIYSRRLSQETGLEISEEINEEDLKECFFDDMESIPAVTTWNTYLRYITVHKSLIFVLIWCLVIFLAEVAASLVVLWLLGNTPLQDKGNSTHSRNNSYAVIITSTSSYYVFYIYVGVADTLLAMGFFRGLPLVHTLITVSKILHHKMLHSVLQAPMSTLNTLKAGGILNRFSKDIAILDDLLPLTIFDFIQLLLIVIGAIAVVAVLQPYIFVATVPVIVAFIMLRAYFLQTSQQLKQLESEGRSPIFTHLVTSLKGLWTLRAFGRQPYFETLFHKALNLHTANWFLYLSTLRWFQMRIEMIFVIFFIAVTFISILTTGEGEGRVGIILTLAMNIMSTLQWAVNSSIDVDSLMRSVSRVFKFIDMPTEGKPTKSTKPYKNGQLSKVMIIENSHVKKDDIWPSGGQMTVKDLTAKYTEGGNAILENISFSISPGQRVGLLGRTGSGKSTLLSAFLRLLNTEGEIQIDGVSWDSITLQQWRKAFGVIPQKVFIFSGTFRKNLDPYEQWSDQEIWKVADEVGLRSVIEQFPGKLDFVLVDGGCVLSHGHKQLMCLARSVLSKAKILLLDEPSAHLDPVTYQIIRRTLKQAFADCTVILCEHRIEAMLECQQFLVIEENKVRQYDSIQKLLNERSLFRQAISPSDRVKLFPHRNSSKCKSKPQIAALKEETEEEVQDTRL
SMILES,Maximum % activity (with co-corrector) [1],Emax [2],EC50 [3],Maximum % activity (with co-corrector) [4],EC50 [5],Emax [10],other results
COc1ccc(C(C)(C)C)cc1CN[C@H]1[C@H](C(C)(C)C)[C@@H](C(=O)O)N(C(=O)Oc2ccccc2)[C@H]1c1ccccc1 [Example I-153],+++ (≥350),–,–,–,–,–,"EC50: < 1 µM; EC50 (EC50 (without co-corrector), test compound without co-corrector): 1 to 10 µM; Emax: > 200%"
COc1ccc(C(C)(C)C)cc1CN[C@H]1[C@H](C(C)(C)C)[C@@H](C(=O)O)N(C(=O)C2OCCc3ccccc32)[C@H]1c1ccccc1 (some centres unmarked) [II-165],–,–,–,–,–,–,EC50 [6]: 1 to 10 µM; EC50 [7]: < 1 µM; Maximum % activity (with co-corrector) [8]: +++ (≥350); Emax [9]: > 200%
CC(C)c1ccccc1CN[C@@H]1[C@@H](C(C)(C)C)[C@H](C(=O)O)N(C(=O)C2CCCCC2)[C@@H]1c1ccccc1 (racemic) [Example I-35],+++ (≥350),–,< 1 µM,–,< 1 µM,< 100%,–
COc1ccc(C(C)(C)C)cc1CN[C@H]1[C@H](C(C)(C)C)[C@@H](C(=O)O)N(C(=O)[C@@H](C)OC)[C@H]1c1ccccc1 [II-311],–,–,–,–,–,–,EC50 [6]: 1 to 10 µM; EC50 [7]: 1 to 10 µM; Maximum % activity (with co-corrector) [8]: +++ (≥350); Emax [9]: > 200%
COc1ccc(C(C)(C)C)cc1CN[C@H]1[C@H](C(C)(C)C)[C@@H](C(=O)O)N(C(=O)C2Cc3ccccc3S2)[C@H]1c1ccccc1 (some centres unmarked) [II-314],–,–,–,–,–,–,EC50 [6]: 1 to 10 µM; EC50 [7]: < 1 µM; Maximum % activity (with co-corrector) [8]: +++ (≥350); Emax [9]: > 200%
"COc1ccc(C(C)(C)C)cc1CN[C@H]1[C@H](C(C)(C)C)[C@@H](C(=O)O)N(C(=O)[C@@H]2CCCO2)[C@H]1c1cccnc1C1CC1 [Example 96, (2S,3S,4S,5S)-3-tert-butyl-4-{[(5-tert-butyl-2-methoxyphenyl)methyl]amino}-5-(2-cyclopropylpyridin-3-yl)-1-[(2S)-oxolane-2-carbonyl]pyrrolidine-2-carboxylic acid]",+++ (≥350),–,1 to 10 µM,–,1 to 10 µM,100 to 200%,–
COc1ccc(C(F)(F)F)cc1CN[C@@H]1[C@@H](C(C)(C)C)[C@H](C(=O)O)N(C(=O)C(C)Oc2ccccc2)[C@@H]1c1ccccc1 (relative stereo) [Example I-32],+++ (≥350),–,1 to 10 µM,–,1 to 10 µM,< 100%,–
COc1nc(C(C)(C)C)ccc1CN[C@H]1[C@H](C(C)(C)C)[C@@H](C(=O)O)N(C(=O)C2CCCC(OC)C2)[C@H]1c1ccccc1 (some centres unmarked) [Example I-197],+++ (≥350),–,1 to 10 µM,–,1 to 10 µM,> 200%,–
"COc1ccc(C(C)(C)C)cc1CN[C@H]1[C@H](C(C)(C)C)[C@@H](C(=O)O)N(C(=O)[C@@H]2CCCO2)[C@H]1c1ccccc1 [Example 34, (2S,3S,4S,5S)-3-tert-butyl-4-{[(5-tert-butyl-2-methoxyphenyl)methyl]amino}-1-[(2S)-oxolane-2-carbonyl]-5-phenylpyrrolidine-2-carboxylic acid]",+++ (≥350),–,1 to 10 µM,–,1 to 10 µM,> 200%,–
CC(C)(C)[C@H]1[C@H](NCc2ccc(F)c(Oc3ccccc3)c2)[C@H](c2ccccc2)N(C(=O)C2CCCCC2)[C@@H]1C(=O)O [II-130],–,–,–,–,–,–,EC50 [6]: 1 to 10 µM; EC50 [7]: 1 to 10 µM; Maximum % activity (with co-corrector) [8]: ++ (≥150 and <350); Emax [9]: < 100%
COc1ncc(C(F)(F)F)cc1CN[C@H]1[C@H](C(C)(C)C)[C@@H](C(=O)O)N(C(=O)C2CCCCC2)[C@H]1c1cccnc1N(C)C [Example I-120],+++ (≥350),–,1 to 10 µM,–,1 to 10 µM,100 to 200%,–
"COc1ccc(C(C)(C)C)cc1CN[C@H]1[C@H](C(C)(C)C)[C@@H](C(=O)O)N(C(=O)C(OC)c2cccc(Cl)c2)[C@H]1c1ccccc1 (single isomer, unassigned) [II-271]",–,–,–,–,–,–,EC50 [6]: 1 to 10 µM; EC50 [7]: < 1 µM; Maximum % activity (with co-corrector) [8]: +++ (≥350); Maximum % activity (without co-corrector) [9]: +++ (≥200)
COc1nc(C(C)(C)C)ccc1CN[C@H]1[C@H](C(C)(C)C)[C@@H](C(=O)O)N(C(=O)OC(C)C)[C@H]1c1ccccc1 [Example I-194],+++ (≥350),–,1 to 10 µM,–,1 to 10 µM,> 200%,–
"COc1nc(C(C)(C)C)ccc1CN[C@H]1[C@H](C(C)(C)C)[C@@H](C(=O)O)N(C(=O)C2CCCC(F)(F)C2)[C@H]1c1ccccc1 (relative stereo) [Example 53, (2S,3S,4S,5S)-3-tert-butyl-4-{[(6-tert-butyl-2-methoxypyridin-3-yl)methyl]amino}-1-[(1R*)-3,3-difluorocyclohexane-1-carbonyl]-5-phenylpyrrolidine-2-carboxylic acid]",+++ (≥350),–,1 to 10 µM,–,< 1 µM,> 200%,–
CC(C)(C)c1cc(CN[C@H]2[C@H](C(C)(C)C)[C@@H](C(=O)O)N(C(=O)C3CCCCC3)[C@H]2c2ccccc2)cc(C(C)(C)C)c1 [II-133],–,–,–,–,–,–,EC50 [6]: 1 to 10 µM; EC50 [7]: 1 to 10 µM; Maximum % activity (with co-corrector) [8]: ++ (≥150 and <350); Emax [9]: < 100%

# Second part, led by results:
Maximum % activity (with co-corrector) [1],Emax [2],EC50 [3],Maximum % activity (with co-corrector) [4],EC50 [5],Emax [10],SMILES,other results
–,< 100%,1 to 10 µM,+++ (≥350),1 to 10 µM,–,COc1cccc(-c2cc(CN[C@H]3[C@H](C(C)(C)C)[C@@H](C(=O)O)N(C(=O)C4CCCCC4)[C@H]3c3ccccc3)c(OC)cn2)c1 [II-418],–
–,> 200%,1 to 10 µM,+++ (≥350),< 1 µM,–,COc1ccc(C(C)(C)C)cc1CN[C@H]1[C@H](C(C)(C)C)[C@@H](C(=O)O)N(C(=O)OC(C)C)[C@H]1c1ccccc1C [II-582],–
–,> 200%,1 to 10 µM,+++ (≥350),1 to 10 µM,–,COc1ccc(Cl)cc1CN[C@H]1[C@H](C(C)(C)C)[C@@H](C(=O)O)N(C(=O)OC(C)C)[C@H]1c1ccccc1C(C)C [II-567],–
–,> 200%,1 to 10 µM,+++ (≥350),1 to 10 µM,–,COc1ccc(C(C)(C)C)cc1CN[C@H]1[C@H](C(C)(C)C)[C@@H](C(=O)O)N(C(=O)C2CCN(C(=O)C3CC3)CC2)[C@H]1c1ccccc1 [II-316],–
–,< 100%,1 to 10 µM,++ (≥150 and <350),1 to 10 µM,–,COc1ncc(C(F)(F)F)cc1CN[C@H]1[C@H](C(C)(C)C)[C@@H](C(=O)O)N(C(=O)C2Cc3cccc(C)c3O2)[C@H]1c1ccccc1 (some centres unmarked) [II-446],–
–,> 200%,1 to 10 µM,+++ (≥350),1 to 10 µM,–,COc1ccc(C(C)(C)C)cc1CN[C@H]1[C@H](C(C)(C)C)[C@@H](C(=O)O)N(C(=O)C2CC(F)C2)[C@H]1c1ccccc1 (some centres unmarked) [II-335],–
–,< 100%,1 to 10 µM,++ (≥150 and <350),1 to 10 µM,–,COc1ncc(C(F)(F)F)cc1CN[C@H]1[C@H](C(C)(C)C)[C@@H](C(=O)O)N(C(=O)[C@H]2CCCCO2)[C@H]1c1cccnc1N(C)C [II-478],–
–,< 100%,> 10 µM,++ (≥150 and <350),1 to 10 µM,–,COCCOc1ncc(C(F)(F)F)cc1CN[C@@H]1[C@@H](C(C)(C)C)[C@H](C(=O)O)N(C(=O)C2CCCCC2)[C@@H]1c1ccccc1 (racemic) [III-80],–
